Reference: PMC12155096 (International Journal of Molecular Sciences, 2025)
Counter-ions that a name gives are not always drawn. Like-named read-outs stand apart in the source and are kept apart here.

Tests used:
human CYP2C19 [1] = molecular target: T1, human CYP2C19 (Homo sapiens, UniProt P33261)
[2] = molecular target: Photinus pyralis (firefly) luciferase (Photinus pyralis, UniProt P08659); test: biochemical; type: biochemical
human CYP2C9 [3] = molecular target: T2, human CYP2C9 (Homo sapiens, UniProt P11712)
T2 sequence (P11712 whole entry): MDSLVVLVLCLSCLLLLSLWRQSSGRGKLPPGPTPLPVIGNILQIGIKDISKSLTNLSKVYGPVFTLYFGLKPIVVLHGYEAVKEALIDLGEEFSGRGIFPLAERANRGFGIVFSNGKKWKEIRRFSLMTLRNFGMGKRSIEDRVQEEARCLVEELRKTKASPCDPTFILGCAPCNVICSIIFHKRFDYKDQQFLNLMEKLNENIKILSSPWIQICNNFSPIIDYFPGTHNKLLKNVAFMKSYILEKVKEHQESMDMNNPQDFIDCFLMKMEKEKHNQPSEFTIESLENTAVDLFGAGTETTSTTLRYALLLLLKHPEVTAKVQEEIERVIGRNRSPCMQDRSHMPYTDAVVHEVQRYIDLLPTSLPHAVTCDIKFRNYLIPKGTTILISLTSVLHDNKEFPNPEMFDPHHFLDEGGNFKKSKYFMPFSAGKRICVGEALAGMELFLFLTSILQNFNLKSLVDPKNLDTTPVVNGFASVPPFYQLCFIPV

CYP3A4 = CYP3A4 (Homo sapiens, UniProt P08684)
Chain of CYP3A4 (P08684 whole entry): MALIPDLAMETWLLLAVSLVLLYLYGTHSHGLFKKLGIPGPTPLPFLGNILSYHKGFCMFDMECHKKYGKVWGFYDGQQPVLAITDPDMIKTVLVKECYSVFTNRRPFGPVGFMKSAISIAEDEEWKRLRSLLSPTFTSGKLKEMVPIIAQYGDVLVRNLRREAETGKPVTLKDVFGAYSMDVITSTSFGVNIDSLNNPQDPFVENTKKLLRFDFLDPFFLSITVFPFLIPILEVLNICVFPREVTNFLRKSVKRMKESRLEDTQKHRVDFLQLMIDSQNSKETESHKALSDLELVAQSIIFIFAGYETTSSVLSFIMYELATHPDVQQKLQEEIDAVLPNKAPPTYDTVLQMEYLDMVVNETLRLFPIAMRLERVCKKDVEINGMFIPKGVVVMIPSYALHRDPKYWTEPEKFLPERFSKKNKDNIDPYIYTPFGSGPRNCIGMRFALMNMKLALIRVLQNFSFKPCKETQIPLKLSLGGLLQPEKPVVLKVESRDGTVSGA

human CYP2D6 = human CYP2D6 (Homo sapiens, UniProt P10635)
Chain of human CYP2D6 (P10635 whole entry): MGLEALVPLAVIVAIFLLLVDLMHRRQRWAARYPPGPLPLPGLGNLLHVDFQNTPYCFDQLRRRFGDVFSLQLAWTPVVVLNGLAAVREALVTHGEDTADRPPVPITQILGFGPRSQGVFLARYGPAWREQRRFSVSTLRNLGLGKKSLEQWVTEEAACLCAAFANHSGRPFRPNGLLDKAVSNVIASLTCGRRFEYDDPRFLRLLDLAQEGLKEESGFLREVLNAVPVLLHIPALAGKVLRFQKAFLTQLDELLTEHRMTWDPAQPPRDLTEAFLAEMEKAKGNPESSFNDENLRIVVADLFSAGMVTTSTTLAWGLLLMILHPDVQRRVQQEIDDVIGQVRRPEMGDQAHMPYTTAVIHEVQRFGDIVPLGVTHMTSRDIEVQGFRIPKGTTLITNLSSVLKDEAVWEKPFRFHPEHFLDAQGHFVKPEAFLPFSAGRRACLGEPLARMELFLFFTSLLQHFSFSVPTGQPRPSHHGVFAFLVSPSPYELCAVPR

human CYP1A2 [4] = molecular target: T3, human CYP1A2 (Homo sapiens, UniProt P05177)
T3 sequence (P05177 1-516): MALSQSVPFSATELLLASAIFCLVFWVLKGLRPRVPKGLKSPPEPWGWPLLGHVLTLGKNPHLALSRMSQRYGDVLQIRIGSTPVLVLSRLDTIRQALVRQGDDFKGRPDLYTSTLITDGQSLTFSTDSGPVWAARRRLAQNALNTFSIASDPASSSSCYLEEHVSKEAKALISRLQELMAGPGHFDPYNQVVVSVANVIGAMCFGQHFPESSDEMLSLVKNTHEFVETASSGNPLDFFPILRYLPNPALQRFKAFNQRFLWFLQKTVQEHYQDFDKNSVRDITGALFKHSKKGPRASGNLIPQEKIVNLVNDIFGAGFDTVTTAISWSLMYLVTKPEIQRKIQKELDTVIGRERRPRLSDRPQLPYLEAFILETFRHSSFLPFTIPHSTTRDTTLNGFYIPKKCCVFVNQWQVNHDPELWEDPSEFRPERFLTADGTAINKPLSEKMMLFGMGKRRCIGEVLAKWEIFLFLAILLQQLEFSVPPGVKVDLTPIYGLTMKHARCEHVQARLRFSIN

human CYP2C9 [5] = molecular target: T2, human CYP2C9; test: biochemical
human CYP2C19 [6] = molecular target: T1, human CYP2C19; test: biochemical
human CYP1A2 [7] = molecular target: T3, human CYP1A2; test: biochemical
[8] = CYP2C9 IC50 (half-maximal inhibitory concentration)

Chain of Photinus pyralis (firefly) luciferase (P08659 whole entry): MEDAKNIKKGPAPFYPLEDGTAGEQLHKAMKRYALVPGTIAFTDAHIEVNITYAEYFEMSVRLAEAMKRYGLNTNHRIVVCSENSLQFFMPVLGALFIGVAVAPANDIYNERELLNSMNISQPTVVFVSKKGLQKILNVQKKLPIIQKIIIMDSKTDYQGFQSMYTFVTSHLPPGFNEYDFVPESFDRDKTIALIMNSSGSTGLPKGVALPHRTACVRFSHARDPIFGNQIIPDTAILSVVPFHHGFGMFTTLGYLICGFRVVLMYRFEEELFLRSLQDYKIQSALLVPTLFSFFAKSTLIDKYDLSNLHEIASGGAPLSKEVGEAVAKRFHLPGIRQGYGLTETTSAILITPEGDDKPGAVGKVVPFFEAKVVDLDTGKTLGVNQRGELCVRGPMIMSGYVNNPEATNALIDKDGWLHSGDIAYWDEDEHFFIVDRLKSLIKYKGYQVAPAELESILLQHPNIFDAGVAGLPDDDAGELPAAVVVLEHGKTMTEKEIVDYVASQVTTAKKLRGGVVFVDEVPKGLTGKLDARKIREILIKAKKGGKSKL
T1 sequence (P33261 whole entry): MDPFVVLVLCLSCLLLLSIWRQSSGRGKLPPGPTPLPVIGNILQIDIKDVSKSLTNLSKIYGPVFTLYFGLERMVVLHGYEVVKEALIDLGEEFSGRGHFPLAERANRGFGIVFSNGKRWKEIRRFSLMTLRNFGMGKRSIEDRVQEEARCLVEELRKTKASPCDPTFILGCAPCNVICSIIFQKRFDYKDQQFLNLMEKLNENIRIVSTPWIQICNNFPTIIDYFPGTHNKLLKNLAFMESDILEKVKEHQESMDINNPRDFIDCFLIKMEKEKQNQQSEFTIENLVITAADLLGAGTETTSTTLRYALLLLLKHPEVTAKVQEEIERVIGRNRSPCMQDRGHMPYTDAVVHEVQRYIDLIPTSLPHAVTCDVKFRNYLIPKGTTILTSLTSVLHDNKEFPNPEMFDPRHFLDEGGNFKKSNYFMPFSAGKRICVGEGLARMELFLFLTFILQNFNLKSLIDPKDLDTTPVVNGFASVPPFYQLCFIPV

## CCOP(=O)([O-])OCC.CCn1cc[n+](C)c1
Human CYP2C19 [1]
  CYP2C19 Efficacy (in parenthesis): 68.44 ± 11.66 (-161 ± 32) %
  IC50: 68.4 µM
[2]
  Luciferase Efficacy (in parenthesis): 86.36 ± 7.02 (-39 ± 30) %
[2]; read-out: Luciferase IC50 (half-maximal inhibitory concentration)
  IC50: 86.4 µM
Human CYP2C9 [3]
  CYP2C9 Efficacy (in parenthesis): 58.2 ± 3.94 (-117 ± 2) %
  IC50: 58.2 µM
CYP3A4
  CYP3A4 Efficacy (in parenthesis): 45.03 ± 9.43 (-76 ± 7) %
  IC50: 45 µM
Human CYP2D6
  CYP2D6 Efficacy (in parenthesis): 0.61 ± 0.29 (-97 ± 6) %
  IC50: 0.61 µM
Human CYP1A2 [4]
  CYP1A2 Efficacy (in parenthesis): 78.99 ± 0 (-105 ± 5) %
  IC50: 79 µM

## Cl.ClCCCN1CCN(c2cccc(Cl)c2)CC1
Human CYP2C19 [1]
  AC50: 8.86 µM
  CYP2C19 Efficacy: 8.86 ± 2.03 (-125 ± 5) %
[2]
  Luciferase IC50: Inactive
Human CYP2C9 [3]
  AC50: 16.8 µM
  CYP2C9 Efficacy: 16.75 ± 1.09 (-48 ± 5) %
CYP3A4
  AC50: 15.5 µM
  CYP3A4 IC50: 15.49 ± 0 (111 ± 12) µM
Human CYP2D6
  AC50: 0.79 µM
  CYP2D6 Efficacy: 0.79 ± 0.18 (-96 ± 4) %
Human CYP1A2 [4]
  AC50: 16.1 µM
  CYP1A2 Efficacy: 16.12 ± 1.09 (-77 ± 4) %

## Cl.Cl.c1ccc(CNCCNCc2ccccc2)cc1
Human CYP2C19 [1]
  CYP2C19 Efficacy: 8.08 ± 0.55 (-122 ± 16) %
[2]
  Luciferase IC50: Inactive
Human CYP2C9 [3]
  CYP2C9 IC50: Inactive
Human CYP2D6
  CYP2D6 Efficacy: 0.79 ± 0.18 (-110 ± 5) %
Human CYP1A2 [4]
  CYP1A2 Efficacy: 20.22 ± 5.13 (-47 ± 10) %

## CC[C@]12CCCN3CCc4c(n(c5ccccc45)C(=O)C1)[C@@H]32 [(-)-Eburnamonine]
Human CYP2C19 [1]
  IC50: 6.17 µM
[2]
  Luciferase IC50 (half-maximal inhibitory concentration): Inactive
Human CYP2C9 [3]
  IC50: 20.1 µM
CYP3A4
  IC50: 4.38 µM
Human CYP1A2 [4]
  IC50: 24.1 µM

## CCCCCCCCCCCCCCCC[N+](C)(C)Cc1ccccc1.[Cl-] [Benzylhexadecyldimethylammonium chloride]
Human CYP2C19 [1]
  CYP2C19 Efficacy: 46.97 ± 13.09 (-144 ± 26) %
[2]
  Luciferase IC50: Inactive
Human CYP2C9 [3]
  CYP2C9 Efficacy: 46.2 ± 8.63 (-120 ± 17) %
Human CYP2D6
  CYP2D6 Efficacy: 0.34 ± 0.06 (-98 ± 2) %
Human CYP1A2 [4]
  CYP1A2 Efficacy: 75.23 ± 5.09 (-82 ± 8) %

## CN(C)CCN(Cc1ccc(Cl)cc1)c1ccccn1.Cl [Chloropyramine hydrochloride]
Human CYP2C19 [1]
  CYP2C19 Efficacy: 7.51 ± 1.03 (-122 ± 9) %
[2]
  Luciferase IC50: Inactive
CYP3A4
  CYP3A4 IC50: Inactive
Human CYP2D6
  CYP2D6 Efficacy: 0.23 ± 0.05 (-101 ± 4) %
Human CYP1A2 [4]
  CYP1A2 Efficacy: 20.13 ± 6.48 (-40 ± 3) %

## C[C@@H](NCCCc1cccc(C(F)(F)F)c1)c1cccc2ccccc12 [Cinacalcet hydrochloride]
Human CYP2C9 [5]
  IC50: 38.9 µM
[2]
  Luciferase IC50: Inactive
Human CYP2C19 [6]
  IC50: 10.8 ± 2.69 µM
Human CYP2D6; human
  IC50: 0.05 µM
Human CYP1A2 [7]
  IC50: 26.9 ± 8.25 µM

## C[C@@H](Cc1ccccc1)NCc1ccccc1Cl.Cl [Clobenzorex hydrochloride]
Human CYP2C19 [1]
  CYP2C19 Efficacy: 1.49 ± 0.1 (-137 ± 12) %
[2]
  Luciferase IC50: Inactive
Human CYP2C9 [3]
  CYP2C9 IC50: Inactive
Human CYP2D6
  CYP2D6 Efficacy: 0.15 ± 0.03 (-111 ± 2) %
Human CYP1A2 [4]
  CYP1A2 Efficacy: 15.49 ± 0 (-71 ± 4) %

## O=c1c(-c2ccc(O)cc2)coc2cc(O)ccc12 [Daidzein]
Human CYP2C9 [5]; [8]
  IC50: 0.36 µM
[2]
  IC50: 19.6 µM
Human CYP2C19 [6]; CYP2C19 IC50 (half-maximal inhibitory concentration)
  IC50: 36.4 µM
Human CYP2D6
  CYP2D6 IC50 (half-maximal inhibitory concentration): Inactive
Human CYP1A2 [7]; CYP1A2 IC50 (half-maximal inhibitory concentration)
  IC50: 28.3 µM

## CCOP(=S)(OCC)Oc1cc(C)nc(C(C)C)n1 [Diazinon]
Human CYP2C9 [5]; CYP2C9 IC50
  IC50: 1.99 µM
[2]
  Luciferase IC50: Inactive
Human CYP2C19 [6]; CYP2C19 IC50
  IC50: 0.44 µM
Human CYP2D6
  CYP2D6 IC50: Inactive
Human CYP1A2 [7]; CYP1A2 IC50
  IC50: 7.13 µM

## CC#C[C@]1(O)CC[C@H]2[C@@H]3C[C@H](C)C4=CC(=O)CC[C@]4(C)[C@H]3CC[C@@]21C [Dimethisteron]
Human CYP2C9 [5]; CYP2C9 IC50
  IC50: 24.1 µM
[2]
  Luciferase IC50: Inactive
Human CYP2C19 [6]; CYP2C19 IC50
  IC50: 9.42 µM
Human CYP2D6
  CYP2D6 IC50: Inactive
Human CYP1A2 [4]
  CYP1A2 IC50: Inactive

## ClC1=C(Cl)C2(Cl)C3C4CC(C5OC45)C3C1(Cl)C2(Cl)Cl (stereo not shown) [Endrin]
Human CYP2C9 [5]; CYP2C9 IC50
  IC50: 12.4 µM
[2]
  Luciferase IC50: Inactive
Human CYP2C19 [6]; CYP2C19 IC50
  IC50: 26.6 µM
Human CYP2D6
  CYP2D6 IC50: Inactive
Human CYP1A2 [7]; CYP1A2 IC50
  IC50: 54 µM

## CCN(CC)C(=O)/C(C#N)=C/c1cc(O)c(O)c([N+](=O)[O-])c1 [Entacapone]
Human CYP2C9 [5]; [8]
  IC50: 0.2 µM
Human CYP2C19 [1]
  CYP2C19 IC50 (half-maximal inhibitory concentration): Inactive
[2]
  Luciferase IC50 (half-maximal inhibitory concentration): Inactive
CYP3A4
  CYP3A4 IC50 (half-maximal inhibitory concentration): Inactive
Human CYP2D6
  CYP2D6 IC50 (half-maximal inhibitory concentration): Inactive
Human CYP1A2 [4]
  CYP1A2 IC50 (half-maximal inhibitory concentration): Inactive

## CCC(CN)=C(c1ccccc1)c1ccccc1.Cl [Etifelmine hydrochloride]
Human CYP2C19 [1]
  CYP2C19 Efficacy: 5.99 ± 2.37 (-107 ± 10) %
[2]
  Luciferase IC50: Inactive
Human CYP2C9 [3]
  CYP2C9 Efficacy: 11.85 ± 3.88 (-96 ± 8) %
Human CYP2D6
  CYP2D6 Efficacy: 4.07 ± 0.52 (-106 ± 3) %
Human CYP1A2 [4]
  CYP1A2 Efficacy: 14.36 ± 3.71 (-50 ± 13) %

## C#Cc1ccc(-c2ccccc2F)cc1 [Fluretofene]
Human CYP2C9 [5]
  IC50: 16.1 µM
[2]
  IC50: 25.8 µM
Human CYP2C19 [6]
  IC50: 25.7 µM
Human CYP1A2 [7]
  IC50: 0.88 µM
